PMC11141368, “Antioxidant, antibacterial, enzyme inhibition and fluorescence characteristics of unsymmetrical thiourea derivatives” (Heliyon, 2024)

Columns and labels:
[1] = tested on: P. aeruginosa; test: Antibacterial agar well diffusion; format: cell-based, Pseudomonas aeruginosa (ATCC27853); conditions: Pseudomonas aeruginosa, 24 h, 6.25 mg/mL per well, 37 °C
Excerpt: (§1) The antibacterial assay was done for all compounds (1–6) as described in previous studies. The mean number of viable organisms per milliliter of stock suspensions containing Escherichia coli (ATCC25922), Pseudomonas aeruginosa (ATCC27853), Salmonella typhi (ATCC0650), and Staphylococcus aureus (NCTC25953) was uncovered using the surface viable counting method. Preparations of suspensions containing approximately 108–109 colony forming units (CFU) per milliliter were made. Aseptic nutritional agar was formulated and transferred onto petri dishes. Cultures of bacteria were uniformly distributed on agar surface using sterile brush sticks. Five wells, each with a diameter of 6 mm, were made in each plate using a sterile borer. Afterwards, a concentration of 6.25 mg/mL of each component was applied to separate wells. Cephradine, a readily accessible antibiotic, was employed as a reference standard at an equivalent concentration. Following sealing, the agar dishes were incubated at a controlled temperature of 37 °C for a period of 24 h. The zone of inhibition in the plates was determined, which represents the inhibition of bacterial growth. Each sample zone of inhibition diameter was evaluated, and the antibacterial effectiveness of each drug was quantified according to the mean diameter of the inhibition zone (in millimetres).

[2] = tested on: E. coli; test: Antibacterial agar well diffusion; format: cell-based, Escherichia coli (ATCC25922); conditions: Escherichia coli, 24 h, 6.25 mg/mL per well, 37 °C
Excerpt: as §1

[3] = ABTS free radical scavenging assay; format: biochemical
Method: (§2) In accordance with the procedure described in the literature, the ABTS activity assay was applied to evaluate the free radical scavenging capabilities of the synthesized compounds (1–6). ABTS solution was prepared by mixing 7 mM ABTS and 2.45 mM potassium persulfate and was then placed for 16 h under dark at room temperature. A methanol dilution was performed on the solution to achieve an absorbance of 0.706 ± 0.001 at 734 nm before starting the assay. To quantify the assay, 3 mL of the ABTS solution has been added to different concentrations (ranging from 62.5 to 1000 μg/mL) of every compound (300 μL) that were dissolved in methanol. Then after 1 min of incubation, the absorbance was continuously measured for 5 min. To confirm precision, all experiments were conducted in triplicate. The antioxidant capacities of the compounds were assessed with gallic acid as a reference, and the ability to remove free radicals was calculated as a percentage for each compound employing Equation.1 as presented below. Additionally, the DPPH free radical scavenging method was employed to assess the antioxidant activity of compounds (1–6), in accordance with a widely recognized procedure documented in existing literature. Concentrations ranging from 62.5 to 1000 μg/mL of compounds (1–6), dissolved in methanol, were introduced into a 2 mL solution of DPPH (0.002 % in methanol). The resulting solutions were kept in the dark at room temperature for a duration of 30 min. The amount of light absorbed by the solutions was then determined using a UV/vis spectrophotometer at a wavelength of 517 nm. The investigations were performed three times, using the exact protocol described for the ABTS scavenging assay. Afterwards, the antioxidant capabilities of each molecule were assessed using calculation.(1) Scavengingactivity(%)=A−B/A×100
(§3) Where, A = absorbance of ABTS/DPPH and B = absorbance of solution containing ABTS/DPPH and test samples.

[4] = tested on: S. typhi; test: Antibacterial agar well diffusion; format: cell-based, Salmonella typhi (ATCC0650); conditions: Salmonella enterica, TYPHI, 24 h, 6.25 mg/mL per well, 37 °C
Excerpt: as §1

[5] = tested on: S. flexenari; test: Antibacterial agar well diffusion; format: cell-based; conditions: 24 h, 6.25 mg/mL per well, 37 °C
[6] = biological target: T1, butyryl cholinesterase (BChE) (Equus caballus, UniProt P81908); test: Anticholinesterase assay (Elman's test), BChE; format: biochemical
T1 construct: The AChE was derived from the electric eel, while BChE was obtained from equineserum; from tissue; host or cells: equine serum
T1 sequence (P81908 whole entry): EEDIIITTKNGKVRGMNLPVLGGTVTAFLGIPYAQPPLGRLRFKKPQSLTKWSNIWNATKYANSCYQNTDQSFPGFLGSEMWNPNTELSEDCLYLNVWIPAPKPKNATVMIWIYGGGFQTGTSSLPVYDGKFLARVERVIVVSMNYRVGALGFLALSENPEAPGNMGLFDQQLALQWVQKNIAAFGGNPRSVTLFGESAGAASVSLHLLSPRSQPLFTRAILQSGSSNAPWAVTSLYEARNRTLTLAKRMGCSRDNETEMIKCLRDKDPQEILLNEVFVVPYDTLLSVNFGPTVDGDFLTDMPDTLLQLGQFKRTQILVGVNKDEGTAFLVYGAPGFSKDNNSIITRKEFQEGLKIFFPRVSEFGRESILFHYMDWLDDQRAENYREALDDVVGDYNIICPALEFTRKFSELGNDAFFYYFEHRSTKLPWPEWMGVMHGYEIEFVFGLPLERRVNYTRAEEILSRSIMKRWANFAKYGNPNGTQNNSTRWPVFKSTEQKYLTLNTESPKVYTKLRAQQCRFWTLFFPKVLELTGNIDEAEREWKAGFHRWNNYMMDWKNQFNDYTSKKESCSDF
Method: (§4) This assay employed two enzymes, namely acetylcholinesterase (AChE) and butyryl cholinesterase (BChE). The AChE was derived from the electric eel, while BChE was obtained from equineserum. The synthesized compounds were dissolved in phosphate buffer (0.1 M, pH 8.0). The enzymes AChE (518 U/mg) and BChE (7–16 U/mg) were diluted in a 0.1 M phosphate buffer to achieve concentrations of 0.03 U/mL and 0.01 U/mL, respectively. Preparations of ATchI (0.5 mM), DTNB (0.2273 mM), and BTchI (0.5 mM) were made in distilled water and stored at a low temperature of 8 °C. […] The solution was heated to 30 °C for 15 min, followed by the gradual addition of the substrate. Absorbance of the heated sample at 412 nm was measured using a double beam spectrophotometer. […] The percentage activity (A) and inhibition of the enzyme were determined by applying the rate of absorption as a function of time (V=ΔAbs/Δt) using the following equation (Equation (2)).(2) %Inhibition=V/Vmax×100 Where V = enzyme inhibition activity of products and Vmax = enzyme activity without test of product.

[7] = DPPH free radical scavenging assay; format: biochemical
Method: as §2, §3

[8] = biological target: T2, acetylcholinesterase (AChE) (Electrophorus electricus, UniProt O42275); test: biochemical
T2 construct: The AChE was derived from the electric eel, while BChE was obtained from equineserum; from tissue; host or cells: electric eel (tissue not specified)
T2 sequence (O42275 24-633): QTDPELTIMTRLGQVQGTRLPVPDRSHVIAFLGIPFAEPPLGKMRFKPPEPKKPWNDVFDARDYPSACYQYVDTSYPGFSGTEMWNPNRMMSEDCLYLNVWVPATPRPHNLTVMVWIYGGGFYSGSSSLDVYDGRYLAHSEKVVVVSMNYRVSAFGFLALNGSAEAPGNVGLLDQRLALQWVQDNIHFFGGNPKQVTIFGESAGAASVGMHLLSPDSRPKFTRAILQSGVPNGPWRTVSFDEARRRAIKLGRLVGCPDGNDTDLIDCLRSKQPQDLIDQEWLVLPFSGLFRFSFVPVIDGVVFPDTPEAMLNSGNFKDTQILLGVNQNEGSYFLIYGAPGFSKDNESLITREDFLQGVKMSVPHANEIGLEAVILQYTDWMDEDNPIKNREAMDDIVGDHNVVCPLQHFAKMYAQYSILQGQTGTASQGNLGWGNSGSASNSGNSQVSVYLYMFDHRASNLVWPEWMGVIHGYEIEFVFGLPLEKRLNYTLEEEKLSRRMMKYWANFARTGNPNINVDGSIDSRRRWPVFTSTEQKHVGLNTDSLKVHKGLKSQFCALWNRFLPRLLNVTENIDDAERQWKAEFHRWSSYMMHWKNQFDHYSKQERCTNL
Method: as §4

[9] = read-out: BChE Percent inhibition
[10] = read-out: AChE Percent inhibition

Structure (SMILES): Cc1cccnc1NC(=S)NC1CCCCC1 [Compound 2, 1-cyclohexyl-3-(3-methylpyridin-2-yl)thiourea]
- zone of inhibition at 6250 µg/mL [1]: 13.5 mm
- zone of inhibition at 6250 µg/mL [2]: 9.5 mm
- ABTS IC50 [3]: 82.02 µg/mL
- ABTS %inhibition ([3]; 62.5 μg/mL): 45.52 ± 2.80%
- ABTS %inhibition ([3]; 125 μg/mL): 51.10 ± 1.39%
- ABTS %inhibition ([3]; 250 μg/mL): 60.39 ± 1.71%
- ABTS %inhibition ([3]; 500 μg/mL): 70.37 ± 2.37%
- ABTS %inhibition ([3]; 1000 μg/mL): 79.87 ± 2.65%
- zone of inhibition at 6250 µg/mL [4]: 11.5 mm
- zone of inhibition at 6250 µg/mL [5]: 11 mm
- IC50 [6]: 1260 µM
- inhibition at 62.5 µg/mL [6, 9]: 31.5 ± 0.71%
- inhibition at 125 µg/mL [6, 9]: 37.5 ± 0.77%
- inhibition at 250 µg/mL [6, 9]: 45.8 ± 0.58%
- inhibition at 500 µg/mL [6, 9]: 56.45 ± 0.49%
- inhibition at 1000 µg/mL [6, 9]: 64.79 ± 0.62%
- DPPH IC50 [7]: 72.00 µg/mL
- DPPH %inhibition ([7]; 62.5 μg/mL): 46.51 ± 2.74%
- DPPH %inhibition ([7]; 125 μg/mL): 54.86 ± 2.86%
- DPPH %inhibition ([7]; 250 μg/mL): 64.15 ± 2.10%
- DPPH %inhibition ([7]; 500 μg/mL): 73.41 ± 2.87%
- DPPH %inhibition ([7]; 1000 μg/mL): 81.22 ± 2.89%
- IC50 [8]: 1480 µM
- inhibition at 62.5 µg/mL [8, 10]: 29.7 ± 0.61%
- inhibition at 125 µg/mL [8, 10]: 35.7 ± 0.77%
- inhibition at 250 µg/mL [8, 10]: 43.8 ± 0.56%
- inhibition at 500 µg/mL [8, 10]: 54.6 ± 0.8%
- inhibition at 1000 µg/mL [8, 10]: 62.6 ± 0.77%
